# Measured values from patent US20070299072A1, “KV1.5 POTASSIUM CHANNEL INHIBITORS” (Wyeth, priority 2006, published 2007).
# Target: T1, Kv1.5 (Homo sapiens, UniProt P22460)
# T1 construct: expressed in transfected cells; host or cells: HEK or LTK- cells
# Assay: Kv1.5 Patch Clamp EP (whole cell patch clamp; single point at 1 μM and IC50)
# Type: cell-based
# Settings: single point at 1.0 μM, Kv1.5 stably over expressed in HEK or LTK- cells
# Method: The external solution is standard Tyrodes solution. […] Inhibition was measured at the end of the 1 second pulses and expressed relative to controls. Initial Kv1.5 inhibition is estimated by single point determinations done at 1 μM.
# T1 sequence (P22460 whole entry): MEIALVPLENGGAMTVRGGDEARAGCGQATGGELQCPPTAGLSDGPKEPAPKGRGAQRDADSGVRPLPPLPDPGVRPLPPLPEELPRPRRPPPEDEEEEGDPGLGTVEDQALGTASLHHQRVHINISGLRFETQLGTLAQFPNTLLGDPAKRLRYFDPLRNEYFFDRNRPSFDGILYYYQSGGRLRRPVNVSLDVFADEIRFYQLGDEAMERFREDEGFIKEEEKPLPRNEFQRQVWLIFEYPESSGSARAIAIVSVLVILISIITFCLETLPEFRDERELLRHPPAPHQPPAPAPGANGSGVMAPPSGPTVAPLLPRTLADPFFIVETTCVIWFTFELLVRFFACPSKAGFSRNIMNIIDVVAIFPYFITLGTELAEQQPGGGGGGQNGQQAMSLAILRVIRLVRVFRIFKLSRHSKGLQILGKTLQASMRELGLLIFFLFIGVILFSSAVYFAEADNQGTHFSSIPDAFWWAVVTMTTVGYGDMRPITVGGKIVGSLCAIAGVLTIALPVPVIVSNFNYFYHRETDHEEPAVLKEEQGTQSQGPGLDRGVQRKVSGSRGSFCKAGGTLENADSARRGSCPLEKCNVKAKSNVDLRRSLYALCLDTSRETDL
row,SMILES,inhibition at 1 µM
1,"COc1ccc(CCN2C(=O)C3(CCN(C(=O)OC(C)(C)C)CC3)NC2c2ccc(C3CC3)cc2)cc1 (stereo not shown) [Compound 64, 2-(4-cyclopropylphenyl)-3-[2-(4-methoxyphenyl)ethyl]-4-oxo-1,3,8-triaza-spiro[4.5]decane-8-carboxylic acid tert-butyl ester]",36%
2,"COc1ccc(CCN2C(=O)C3(CCN(C(N)=O)CC3)N(C)C2c2ccc(OC)cc2)cc1 (stereo not shown) [Compound 72, 2-(4-methoxyphenyl)-3-[2-(4-methoxyphenyl)ethyl]-1-methyl-4-oxo-1,3,8-triazaspiro[4.5]decane-8-carboxamide]",16%
3,"COc1ccc(CCN2C(=O)C3(CCN(C(=O)N(C)C)CC3)N(C)C2c2ccc(C3CC3)cc2)cc1 (stereo not shown) [Compound 18, 2-(4-Cyclopropylphenyl)-3-[2-(4-methoxyphenyl)ethyl]-1-methyl-4-oxo-1,3,8-triaza-spiro[4.5]decane-8-carboxylic acid dimethylamide]",10%
4,"COC(=O)N1CCC2(CC1)C(=O)N(CCc1ccc(OC)cc1)C(c1ccc(C3CC3)cc1)N2C (stereo not shown) [Compound 41, Methyl 2-(4-cyclopropylphenyl)-3-[2-(4-methoxyphenyl)ethyl]-1-methyl-4-oxo-1,3,8-triazaspiro[4.5]decane-8-carboxylate]",17%
5,"COc1ccc(CCN2C(=O)C3(CCN(C(N)=O)CC3)NC2c2ccc(C3CC3)cc2)cc1 (stereo not shown) [Compound 74, 2-(4-cyclopropylphenyl)-3-[2-(4-methoxyphenyl)ethyl]-4-oxo-1,3,8-triazaspiro[4.5]decane-8-carboxamide]",5%
6,"CN1C(c2ccc(C3CC3)cc2)N(CCCc2ccccc2)C(=O)C12CCNCC2 (stereo not shown) [Compound 43, 2-(4-Cyclopropylphenyl)-1-methyl-3-(3-phenylpropyl) —1,3,8-triazaspiro[4.5]-decan-4-one]",23%

# Now from value to compound:
row,inhibition at 1 µM,SMILES
1,21%,"COc1ccc(CCN2C(=O)C3(CCNCC3)NC2c2ccc(C3CC3)cc2)cc1 (stereo not shown) [Compound 93, 2-(4-cyclopropylphenyl)-3-[2-(4-methoxyphenyl)ethyl]-1,3,8-triazaspiro[4.5]decan-4-one]"
2,8%,"COc1ccc(CCN2C(=O)C3(CCN(C(=O)[C@H]4CCCN4)CC3)N(C)C2c2ccc(C3CC3)cc2)cc1 (stereo partly drawn) [Compound 90, 2-(4-cyclopropylphenyl)-3-[2-(4-methoxyphenyl)ethyl]-1-methyl-8-D-prolyl-1,3,8-triazaspiro[4.5]decan-4-one]"
3,7%,"CN1C(c2ccc(C3CC3)cc2)N(CCc2ccc(OC(F)(F)F)cc2)C(=O)C12CCN(C(=O)OC(C)(C)C)CC2 (stereo not shown) [Compound 77, tert-butyl 2-(4-cyclopropylphenyl)-1-methyl-4-oxo-3-{2-[4-(trifluoromethoxy)phenyl]ethyl}-1,3,8-triazaspiro[4.5]decane-8-carboxylate]"
4,13%,"COc1ccc(CCN2C(=O)C3(CCN(C(=O)C4CC4)CC3)NC2c2ccc(C(C)(C)C)cc2)cc1 (stereo not shown) [Compound 88, 2-(4-tert-butylphenyl)-8-(cyclopropylcarbonyl)-3-[2-(4-methoxyphenyl)ethyl]-1,3,8-triazaspiro[4.5]decan-4-one]"
5,7%,"COc1ccc(CCN2C(=O)C3(CCN(C(=N)N)CC3)N(C)C2c2ccc(C3CC3)cc2)cc1 (stereo not shown) [Compound 84, 2-(4-cyclopropylphenyl)-3-[2-(4-methoxyphenyl)ethyl]-1-methyl-4-oxo-1,3,8-triazaspiro[4.5]decane-8-carboximidamide]"
6,4%,"CN=C(N)N1CCC2(CC1)C(=O)N(CCc1ccc(OC)cc1)C(c1ccc(C3CC3)cc1)N2C (stereo not shown) [Compound 86, 2-(4-cyclopropylphenyl)-3-[2-(4-methoxyphenyl)ethyl]-N′,1-dimethyl-4-oxo-1,3,8-triazaspiro[4.5]decane-8-carboximidamide]"
7,12%,"CCS(=O)(=O)N1CCC2(CC1)NC(c1ccc(C(C)(C)C)cc1)N(CCc1ccc(OC)cc1)C2=O (stereo not shown) [Compound 94, 2-(4-tert-butylphenyl)-8-(ethylsulfonyl)-3-[2-(4-methoxyphenyl)ethyl]-1,3,8-triazaspiro[4.5]decan-4-one]"
